Reference: US20230233701A1 (priority 2020, published 2023)

Assays:
2D2 CD4 T cells = assay: 2D2 CD4 T-cell adoptive transfer and challenge; conditions: amount equimolar to the administered […]-MOG35-55 adduct
[1] = system: OVA protein and OB1 peptide; conditions: three consecutive injections, C57BL/6J

Substance	division of 2D2 T cells (2D2 CD4 T cells) [%]	IgG antibody responses against OVA protein or OB1 peptide [1]
MOG35-55: amino acids 35-55 of MOG, MEVGWYRSPFSRVVHLYRNGK (SEQ ID NO: 49) (UniProt Q61885 63-83, looked up, fragment)	≤ 5	–
OVA protein: free OVA (ovalbumin) protein, equimolar amounts	–	readily produced such antibodies
